Laboratory results as given in publication PMC11535068, “Design, in silico studies and biological evaluation of novel chalcones tethered triazolo[3,4-a]isoquinoline as EGFR inhibitors targeting resistance in non-small cell lung cancer” (Scientific Reports, 2024).

Tests used:
[1] = system: PC3; assay: MTT antiproliferative assay; conditions: Homo sapiens, PC-3, 24 h, read-out: IC50 PC3
Experimental: (§4) Cell line cells were purchased from the American Type Culture Collection (ATCC, Manassas, VA) and were cultured according to the supplier’s instructions. […] The media was changed every 48 h, and the cells were split when 80–90% confluence was reached. Cell viability was evaluated by MTT assay.

[2] = system: MCF-7; assay: MTT antiproliferative assay; conditions: Homo sapiens, MCF7, 24 h, read-out: IC50 MCF-7
Experimental: as §4

[3] = system: A549; assay: MTT antiproliferative assay; conditions: Homo sapiens, A549, 24 h, read-out: IC50 A549
Experimental: as §4

[4] = system: HT-29; assay: MTT antiproliferative assay; conditions: Homo sapiens, HT-29, 24 h, read-out: IC50 HT-29
Experimental: as §4

[5] = system: HCT-116; assay: MTT antiproliferative assay; conditions: Homo sapiens, HCT-116, 24 h, read-out: IC50 HCT-116
Experimental: as §4

[6] = system: WI-38; assay: MTT assay on normal lung cell line; conditions: Homo sapiens, WI-38, 24 h, read-out: IC50 WI-38
Experimental: as §4

[7] = target: T1, total EGFR (Homo sapiens, UniProt P00533); assay: EGFR inhibition assay on A549 cells (cloud clone SEA757Hu kit); assay type: cell-based; conditions: for IC50: total EGFR, A549 cells; for Fold more efficient in inhibiting EGFR than lapatinib: total EGFR IC50 ratio to Lapatinib
T1 construct: endogenous in cells; host or cells: A549
Experimental: (§1) EGFR inhibition assay was performed on A549 cancer cells using cloud clone product SEA757Hu 96 Ki, according to manufacturer’s instructions protocol. The homogeneous time-resolved fluorescence assay method was used to assess the inhibitory activity of 3e and 3f against EGFR^WT, EGFR^T790M and EGFR^L858R. The EGFR proteins (EGFR^WT, EGFR^T790M and EGFR^L858R) were obtained from Signalchem (BC V6V 2J2, Canada). ATP and other chemicals were obtained from Sigma. […] After 30 min, the reaction was stopped by adding detection reagents containing EDTA.

[8] = target: T2, EGFR^T790M (Homo sapiens, UniProt P00533, T790M); assay: Homogeneous time-resolved fluorescence EGFR-TK assay; assay type: biochemical; conditions: selectivity index
T2 construct: purchased Signalchem
Experimental: as §1

[9] = target: T3, EGFR^L858R (Homo sapiens, UniProt P00533, L858R); assay: as above; assay type: biochemical; conditions: selectivity index
T3 construct: purchased Signalchem
Experimental: as §1

[10] = system: Bax; assay: RT-qPCR gene expression in A549 cells; assay type: cell-based, human; conditions: A549, 24 h, vs vehicle cells
Experimental: (§2) The real-time polymerase chain reaction (RT-qPCR) technique was used to evaluate the gene expression. A panel of eight genes (P53, BAX, Caspase-3, Caspase-8, Caspase-9, MMP1, CDK4, and Bcl2) was chosen to estimate the compounds’ ability to induce apoptosis. A549 cancer cells were treated with 3e and 3f compounds for 24 h before total RNA extraction. While untreated A549 cancer cells were utilized as a negative control. One-step RT-qPCR was performed using the iScript™ One-Step RT-PCR kit with SYBR®. The primer pairs sequences for each gene used are mentioned in Table 7. Control reactions were formed […] or without the reverse transcriptase enzyme.

[11] = system: Caspase 8; assay: RT-qPCR gene expression in A549 cells; assay type: cell-based, human; conditions: A549, 24 h, vs vehicle cells, beta-actin housekeeping gene
Experimental: as §2

[12] = system: Caspase 3; assay: RT-qPCR gene expression in A549 cells; assay type: cell-based, human; conditions: A549, 24 h, vs vehicle cells, beta-actin housekeeping gene
Experimental: as §2

[13] = system: CDK4; assay: RT-qPCR gene expression in A549 cells; assay type: cell-based, human; conditions: A549, 24 h, vs vehicle cells, beta-actin housekeeping gene
Experimental: as §2

[14] = system: P53; assay: RT-qPCR gene expression in A549 cells; assay type: cell-based, human; conditions: A549, 24 h, vs vehicle cells
Experimental: as §2

[15] = system: Bcl2; assay: RT-qPCR gene expression in A549 cells; assay type: cell-based, human; conditions: A549, 24 h, vs vehicle cells, beta-actin housekeeping gene
Experimental: as §2

[16] = system: Caspase 9; assay: RT-qPCR gene expression in A549 cells; assay type: cell-based, human; conditions: A549, 24 h, vs vehicle cells, beta-actin housekeeping gene
Experimental: as §2

[17] = system: MMP1; assay: RT-qPCR gene expression in A549 cells; assay type: cell-based, human; conditions: A549, 24 h, vs vehicle cells, beta-actin housekeeping gene
Experimental: as §2

[18] = system: A549 lung cancer cells; assay: Cell cycle analysis (DNA content, flow cytometry); assay type: cell-based, human; conditions: A549, 24 h, at IC50; for DNA content Pre-G1%: vehicle 2.28%; for DNA content G2/M%: vehicle 8.99%; for DNA content S%: vehicle 44.26%; for DNA content G0–G1%: vehicle 46.75%
Experimental: (§3) Quantitation of DNA content was evaluated using the Annexin V-FITC Apoptosis Detection kit (BioVision, CA, USA). Dual staining for Annexin-V and PI allows the discrimination between live cells, necrotic cells, and cells in different phases of apoptosis. […] Then, cells were collected and washed with 1X phosphate-buffered saline. The cells were stained in the dark with annexin V-FITC and propidium iodide in a binding buffer and analyzed using the flow cytometer. The cell cycle profiles were analysed using MultiCycle software (Phoenix Flow Systems, San Diego, CA)[60].

[19] = system: A549 lung cancer cells; assay: Annexin V-FITC/PI flow cytometric apoptosis analysis; assay type: cell-based, human; conditions: A549, 24 h, 3e 2.3 µM, 3f 1.15 µM (IC50); for Apoptosis Late (%): vehicle 0.21%; for Apoptosis Early (%): vehicle 0.49%; for Apoptosis Total (%): vehicle 0.70%; for Necrosis (%): vehicle 1.58%
Experimental: as §3

Structure (SMILES)	IC50 [1]	IC50 [2]	IC50 [3]	IC50 [4]	IC50 [5]	melting point	IC50 [7]	IC50 [6]	further results
O=c1[nH]cc(F)c(=O)[nH]1 [Compound 5-FU, 5-fluorouracil, reference compound]	178.2 ± 0.34 µM	160.3 ± 0.47 µM	66.24 ± 0.36 µM	203.6 ± 0.48 µM	171.5 ± 0.23 µM	–	–	210.69 ± 0.19 µM	–
C#Cc1cccc(Nc2ncnc3cc(OCCOC)c(OCCOC)cc23)c1 [Erlotinib, reference compound]	14.4 ± 0.78 µM	–	7.32 ± 0.52 µM	9.5 ± 0.46 µM	–	–	–	1431.6 ± 0.22 µM	–
CS(=O)(=O)CCNCc1ccc(-c2ccc3ncnc(Nc4ccc(OCc5cccc(F)c5)c(Cl)c4)c3c2)o1 [Lapatinib, reference compound]	13.7 ± 0.89 µM	5.02 ± 1.1 µM	9.66 ± 0.44 µM	8.23 ± 0.33 µM	5.92 ± 0.45 µM	–	–	1239.4 ± 0.18 µM	–

The next lines start with results.

IC50 [1]	IC50 [2]	IC50 [3]	IC50 [4]	IC50 [5]	melting point	IC50 [7]	Structure (SMILES)	IC50 [6]	further results
6.61 ± 1.63 µM	10 ± 0.23 µM	2.45 ± 0.68 µM	5.05 ± 0.42 µM	9.41 ± 0.47 µM	184 to 186 °C	1.89 ± 0.37 µM	COc1cc2c(cc1OC)C1N(CC2)C(C(=O)C=Cc2cn(-c3ccccc3)nc2-c2ccccc2)=NN1c1ccc(C)cc1 (centres unmarked) [Compound 3b, 1-(8,9-Dimethoxy-1-(p-tolyl)-1,5,6,10b-tetrahydro-[1,2,4]triazolo[3,4-a]isoquinolin-3-yl)-3-(1,3-diphenyl-1H-pyrazol-4-yl)prop-2-en-1-one]	669.88 ± 0.26 µM	–
22.16 ± 0.18 µM	5.53 ± 0.33 µM	1.15 ± 0.38 µM	2.41 ± 0.41 µM	4.61 ± 0.28 µM	224 to 226 °C	0.023 µM	COc1cc2c(cc1OC)C1N(CC2)C(C(=O)C=Cc2cn(-c3ccccc3)nc2-c2ccccc2)=NN1c1ccc([N+](=O)[O-])cc1 (centres unmarked) [Compound 3f, 1-(8,9-Dimethoxy-1-(4-nitrophenyl)-1,5,6,10b-tetrahydro-[1,2,4]triazolo[3,4-a]isoquinolin-3-yl)-3-(1,3-diphenyl-1H-pyrazol-4-yl)prop-2-en-1-one]	1578 ± 0.23 µM	SI^b = EGFR^WT IC50/ EGFR^T790M IC50 [8]: 4.52; SI^a = EGFR^WT IC50/ EGFR^L858R IC50 [9]: 25.95; Bax gene expression (in words) [10]: significantly upregulated; Caspase 8 gene expression fold change [11]: 3.48 fold; Caspase 3 gene expression fold change [12]: 11.26 fold; CDK4 gene expression fold change [13]: 0.29 fold; p53 gene expression (in words) [14]: significantly upregulated; Bcl-2 gene expression fold change [15]: 0.13 fold; Caspase 9 gene expression fold change [16]: 9.32 fold; MMP1 gene expression fold change [17]: 0.31 fold; DNA content Pre-G1% [18]: 28.21%; DNA content G2/M% [18]: 39.84%; DNA content S% [18]: 26.42%; DNA content G0–G1% [18]: 33.74%; Fold more efficient in inhibiting EGFR than lapatinib [7]: 1.91 fold; Apoptosis Late (%) [19]: 15.24%; Apoptosis Early (%) [19]: 3.08%; Apoptosis Total (%) [19]: 18.32%; Necrosis (%) [19]: 9.89%
5.05 ± 1.43 µM	13.5 ± 0.29 µM	4.68 ± 0.41 µM	15 ± 0.58 µM	14.1 ± 0.66 µM	216 to 218 °C	0.066 µM	COc1cc2c(cc1OC)C1N(CC2)C(C(=O)C=Cc2cn(-c3ccccc3)nc2-c2ccccc2)=NN1c1ccc(Cl)cc1 (centres unmarked) [Compound 3d, 1-(1-(4-Chlorophenyl)-8,9-dimethoxy-1,5,6,10b-tetrahydro-[1,2,4]triazolo[3,4-a]isoquinolin-3-yl)-3-(1,3-diphenyl-1H-pyrazol-4-yl)prop-2-en-1-one]	468.92 ± 0.17 µM	–
3.14 ± 1.76 µM	8.07 ± 0.1 µM	1.98 ± 0.5 µM	16.2 ± 0.57 µM	8.15 ± 0.54 µM	180 to 182 °C	1.62 ± 0.23 µM	COc1cc2c(cc1OC)C1N(CC2)C(C(=O)C=Cc2cn(-c3ccccc3)nc2-c2ccccc2)=NN1c1ccccc1 (centres unmarked) [Compound 3a, 1-(8,9-Dimethoxy-1-phenyl-1,5,6,10b-tetrahydro-[1,2,4]triazolo[3,4-a]isoquinolin-3-yl)-3-(1,3-diphenyl-1H-pyrazol-4-yl)prop-2-en-1-one]	890.44 ± 0.13 µM	–
3.22 ± 1.37 µM	4.07 ± 0.38 µM	5.26 ± 0.49 µM	4.69 ± 0.55 µM	5.4 ± 0.73 µM	186 to 188 °C	0.059 ± 0.16 µM	COc1ccc(N2N=C(C(=O)C=Cc3cn(-c4ccccc4)nc3-c3ccccc3)N3CCc4cc(OC)c(OC)cc4C32)cc1 (centres unmarked) [Compound 3c, 1-(8,9-Dimethoxy-1-(4-methoxyphenyl)-1,5,6,10b-tetrahydro-[1,2,4]triazolo[3,4-a]isoquinolin-3-yl)-3-(1,3-diphenyl-1H-pyrazol-4-yl)prop-2-en-1-one]	451.08 ± 0.11 µM	–
2.72 ± 1.36 µM	4.21 ± 0.41 µM	2.3 ± 0.11 µM	4.2 ± 0.38 µM	14.8 ± 0.31 µM	220 to 222 °C	–	COc1cc2c(cc1OC)C1N(CC2)C(C(=O)C=Cc2cn(-c3ccccc3)nc2-c2ccccc2)=NN1c1ccc(Br)cc1 (centres unmarked) [Compound 3e, 1-(1-(4-Bromophenyl)-8,9-dimethoxy-1,5,6,10b-tetrahydro-[1,2,4]triazolo[3,4-a]isoquinolin-3-yl)-3-(1,3-diphenyl-1H-pyrazol-4-yl)prop-2-en-1-one]	1731.9 ± 0.21 µM	SI^b = EGFR^WT IC50/ EGFR^T790M IC50 [8]: 2.63; SI^a = EGFR^WT IC50/ EGFR^L858R IC50 [9]: 15.56; Bax gene expression (in words) [10]: significantly upregulated; Caspase 8 gene expression fold change [11]: 4.23 fold; Caspase 3 gene expression fold change [12]: 9.29 fold; CDK4 gene expression fold change [13]: 0.44 fold; p53 gene expression (in words) [14]: significantly upregulated; Bcl-2 gene expression fold change [15]: 0.18 fold; Caspase 9 gene expression fold change [16]: 6.55 fold; MMP1 gene expression fold change [17]: 0.37 fold; DNA content Pre-G1% [18]: 16.02%; DNA content G2/M% [18]: 22.74%; DNA content S% [18]: 35.93%; DNA content G0–G1% [18]: 41.33%; Fold more efficient in inhibiting EGFR than lapatinib [7]: 1.42 fold; Apoptosis Late (%) [19]: 4.5%; Apoptosis Early (%) [19]: 4.26%; Apoptosis Total (%) [19]: 8.76%; Necrosis (%) [19]: 7.26%
